Experimental data taken from US6462064B1, “Apoptosis inducing adamantyl derivatives and their usage as anti-cancer agents, especially for cervical cancers and dysplasias” (Galderma Research & Development S.N.C., priority 1996, dated 2002).
“Also recorded” adds a separate entry of the source.

Each molecule was assayed on cancer cells (assay: List of active compounds: types of cancers and precancers active against).
Assay type: cell-based
Source text: As discussed, the adamantyl retinoid derivatives according to the invention which induce apoptosis are useful for treating many different types of cancers.

Structure (SMILES) | Types of Cancers and Precancers Active Against
CCC1OC(=O)C(C)C(OC2CC(C)(OC)C(OC(=O)c3ccc4cc(-c5ccc(OC)c(C67CC8CC(CC(C8)C6)C7)c5)ccc4c3)C(C)O2)C(C)C(OC2OC(C)CC(N(C)C)C2O)C(C)(O)CC(C)C(=O)C(C)C(O)C1(C)O (stereo not shown) [Compound 32, 4″-Erythromycin A ester of 6-[3-(1-adamantyl)-4-methoxyphenyl]2-naphthoic acid] | leukemia, lymphoma
O=C(O)c1ccc(OC(=O)c2ccc(OCC(O)CO)c(C34CC5CC(CC(C5)C3)C4)c2)cc1 (stereo not shown) [Compound 33, 4-carboxyphenyl ester of 3-(1-adamantyl)-4-(2,3-dihydroxyproproxy)benzoic acid] | leukemia, skin
O=C(O)c1ccc2cc(-c3ccc(OCC(O)CO)c(C45CC6CC(CC(C6)C4)C5)c3)ccc2c1 (stereo not shown) [Compound 34, 6-[3-(1-adamantyl)-4-(2,3-dihydroxypropoxy)phenyl]-2-naphthoic acid] | leukemia, skin
COC(=O)c1ccc(C(=O)Nc2ccc(C(=O)O)cc2)cc1C12CC3CC(CC(C3)C1)C2 [Compound 35, N-4-carboxyphenyl 3-(1-adamantyl)-4-(methoxycarbonyl)benzamide] | leukemia, lymphoma, myeloma
O=C(O)c1ccc2cc(-c3cc(O)c(O)c(C45CC6CC(CC(C6)C4)C5)c3)ccc2c1 [Compound 36, 6-[3-(1-adamantyl)-4,5-dihydroxyphenyl]-2-naphthoic acid] | brain, head and neck, leukemia,; also recorded: lymphoma, myeloma, pancreatic
CC12CC3CC(C1)CC(c1cc(-c4ccc5cc(C(=O)O)ccc5c4)cc4c1OCO4)(C3)C2 [Compound 37, 6-[3-(3-methyl-1-adamantyl)-4,5-methylenedioxyphenyl]-2-naphthoic acid] | kidney, leukemia, lung,; also recorded: lymphoma, skin
O=C(O)c1ccc2cc(-c3cc4c(c(C56CC7CC(CC(C7)O5)C6)c3)OCO4)ccc2c1 [Compound 38, 6-[3-(2-oxa-1-adamantyl)-4,5-methylenedioxyphenyl]-2-naphthoic acid] | leukemia, skin
COc1ccc(-c2ccc3cc(C(=O)O)ccc3c2)cc1C12CC3CC(CC(C3)O1)C2 [Compound 39, 6-[3-(2-oxa-1-adamantyl)-4-methoxyphenyl]-2-naphthoic acid] | kidney, lymphoma, skin, liver
COc1ccc(-c2ccc3cc(C(=O)O)ccc3c2)cc1C12CC3CC(CC(C)(C3)O1)C2 [Compound 40, 6-[3-(2-oxa-3-methyl-1-adamantyl)-4-methoxyphenyl]-2-naphthoic acid] | bladder, breast, kidney,; also recorded: leukemia, lung, lymphoma,; also recorded: ovarian, prostate, skin
COc1ccc(-c2ccc3cc(C(=O)O)ccc3c2)cc1C12CC3CC(CC(C)(C3)C1)C2 [Compound 41, 6-[3-(3-methyl-1-adamantyl)-4-methoxyphenyl]-2-naphthoic acid] | skin
COc1ccc(-c2ccc3cc(C(=O)O)ccc3c2)cc1C12CC3CC(C)(CC(C)(C3)C1)C2 [Compound 42, 6-[3-(3,5-dimethyl-1-adamantyl)-4-methoxyphenyl]-2-naphthoic acid] | skin
CC12CC3CC(C)(C1)CC(c1cc(-c4ccc5cc(C(=O)O)ccc5c4)cc4c1OCO4)(C3)C2 [Compound 43, 6-[3-(3,5-dimethyl-1-adamantyl)-4,5-methylenedioxyphenyl]-2-naphthoic acid] | prostate, breast, neuroblastoma
COc1ccc(-c2ccc3cc(C(=O)N4CCCNCC4)ccc3c2)cc1C12CC3CC(CC(C3)C1)C2 [Compound 44, N-{6-[3-(1-adamantyl)-4-methoxyphenyl]-2-naphthalenecarboxoyl}homopiperazide] | bladder, kidney, epidermal,; also recorded: leukemia lung, neuroblastoma,; also recorded: hepatoma, cervix, skin
